The values that follow come from US20240010684A1, “MASP INHIBITORY COMPOUNDS AND USES THEREOF” (BAYER AKTIENGESELLSCHAFT, priority 2020, published 2024).

For one assay, the target named is human MASP1 (Homo sapiens (Human), UniProt P48740). Description: Biochemical human MASP1 assay (FRET substrate). The conditions noted are these: Average IC50; recombinant human MASP1; read-out: human MASP1 IC50. From the text: A truncated cDNA sequence of human MASP1 encoding the fragment corresponding to the amino acids 297-699 with a C-terminal His Tag and N-terminal Ig-kappa secretion signal (SEQ ID No: 2) was subcloned into the mammalian expression vector pcDNA3.1 (Invitrogen).
The MASP1 or MASP2 expression vectors were transfected into the HEK293 (ATCC No. CRL-1573) cell line using Lipofectamine LTX® Reagent (Thermo-Fischer), as described by the manufacturer. The mature form of the recombinant human MASP1 and MASP2 proteases were secreted into the culture medium. The MASP1 and MASP2 proteins were purified from the conditioned media by affinity chromatography on Ni-NTA Superflow resin (Qiagen) as described by the manufacturer.
2.2 Biochemical Human MASP1 Assay
Recombinant human MASP1 enzyme produced in the HEK 293 cells was diluted in the reaction buffer (50 mM HEPES pH 8,0; 100 mM NaCl; 0,01% CHAPS; 0.5 mM Gluthathione) to the concentration of 20 nM and 25 μl was transferred into each single well of 384-well white microtiter plate (Greiner Bio One 781075). 1 μl of the inhibitor compound solution (dissolved in DMSO, at the corresponding concentration) or pure DMSO as a control was added to the same wells. The enzymatic reaction was initiated by addition of 25 μl of 20 μM solution of the FRET substrate ABZ-[…]-Lys (Dnp)-NH2; (ABZ-2-aminobenzoyl; DNP 2,4-dinitrophenyl; custom synthesis by Jerini Peptide Technologies, Berlin) in the reaction buffer. The microtiter plate was incubated for 60-120 min at the temperature of 32 C. The increase of fluorescence intensity was measured in appropriate fluorescence plate reader (e.g. TECAN Ultra) using excitation wavelength of 320 nm and emission wavelength of 420 nm. IC50 values were calculated from percentage of inhibition of human MASP1 activity as a function of test compound concentration.

Another assay concerns the target human MASP2 (Homo sapiens (Human), UniProt O00187). Description: Biochemical human MASP2 assay (FRET substrate). The conditions noted are these: Average IC50; recombinant human MASP2; read-out: human MASP2 IC50. From the text: The MASP1 or MASP2 expression vectors were transfected into the HEK293 (ATCC No. CRL-1573) cell line using Lipofectamine LTX® Reagent (Thermo-Fischer), as described by the manufacturer. The mature form of the recombinant human MASP1 and M[…] were secreted into the culture medium. The MASP1 and M[…] were purified from the conditioned media by affinity chromatography on Ni-NTA Superflow resin (Qiagen) as described by the manufacturer. 2.3 Biochemical Human MASP2 Assay […] The enzymatic reaction was initiated by addition of 25 μl of 60 μM solution of the FRET substrate DABCYL-[…]; […] The microtiter plate was incubated for 60-120 min at the temperature of 32 C. The increase of fluorescence intensity was measured in appropriate fluorescence plate reader (e.g. TECAN Ultra) using excitation wavelength of 340 nm and emission wavelength of 490 nm. IC50 values were calculated from percentage of inhibition of human MASP2 activity as a function of test compound concentration.

Where a SMILES comes first, the peptide text is derived from it. Bridges are numbered along the chain shown (N, C = ends). [ ]: non-standard residue; d: D form. PEG4 = NCCOCCOCCOCCOCCC(=O)O; Ahx = NCCCCCC(=O)O

human MASP2, sequence (O00187 other isoform, or with tags, fused parts or gaps): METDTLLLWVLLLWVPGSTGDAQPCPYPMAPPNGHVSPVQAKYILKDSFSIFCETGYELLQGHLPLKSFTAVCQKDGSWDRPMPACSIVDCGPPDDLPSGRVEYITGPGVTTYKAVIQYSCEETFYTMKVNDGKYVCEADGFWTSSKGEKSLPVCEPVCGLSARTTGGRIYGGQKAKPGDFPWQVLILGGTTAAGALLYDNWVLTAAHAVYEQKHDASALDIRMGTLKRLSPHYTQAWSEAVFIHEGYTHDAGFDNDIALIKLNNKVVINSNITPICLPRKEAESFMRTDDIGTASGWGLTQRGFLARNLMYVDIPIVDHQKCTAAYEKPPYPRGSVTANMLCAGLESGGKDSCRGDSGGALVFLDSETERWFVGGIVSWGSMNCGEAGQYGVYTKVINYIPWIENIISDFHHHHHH
human MASP1, sequence (P48740 other isoform, or with tags, fused parts or gaps): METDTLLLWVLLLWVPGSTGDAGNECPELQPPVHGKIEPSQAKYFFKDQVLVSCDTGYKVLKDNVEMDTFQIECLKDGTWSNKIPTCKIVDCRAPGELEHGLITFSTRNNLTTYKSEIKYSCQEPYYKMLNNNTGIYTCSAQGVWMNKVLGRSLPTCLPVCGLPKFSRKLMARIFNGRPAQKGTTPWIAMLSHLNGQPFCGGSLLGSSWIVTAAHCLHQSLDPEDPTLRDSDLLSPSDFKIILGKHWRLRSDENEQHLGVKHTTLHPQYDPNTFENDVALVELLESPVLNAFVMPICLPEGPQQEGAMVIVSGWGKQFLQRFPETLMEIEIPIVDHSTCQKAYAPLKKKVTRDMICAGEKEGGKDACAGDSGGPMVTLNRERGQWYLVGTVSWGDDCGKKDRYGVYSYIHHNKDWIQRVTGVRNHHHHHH

One may read the IC50 as the concentration that gives 50% inhibition. In the case of `CC[C@H](C)[C@@H]1NC(=O)CNC(=O)CCOCCOCCOCCOCCNC(=O)[C@H](CC(=O)O)NC(=O)[C@@H]2CCCN2C(=O)[C@H]([C@@H](C)CC)NC(=O)[C@@H]2CSSC[C@H](NC1=O)C(=O)N[C@@H](CO)C(=O)N[C@@H](CCCNC(=N)N)C(=O)N[C@@H](CO)C(=O)N[C@@H](CC(C)C)C(=O)N1CCC[C@H]1C(=O)N1CCC[C@H]1C(=O)N[C@@H]([C@@H](C)CC)C(=O)N2` [Example 14] (cyclo(CIPD[PEG4]GICSRSLPPI); disulfide 1-8), the values for the IC50 at human MASP1 and at human MASP2 were 170 nM and 240 nM, respectively.

For the compound `CC[C@H](C)[C@@H]1NC(=O)CNC(=O)CNC(=O)[C@H](CC(=O)O)NC(=O)[C@@H]2CCCN2C(=O)[C@H]([C@@H](C)CC)NC(=O)[C@@H]2CSSC[C@H](NC1=O)C(=O)N[C@@H](CO)C(=O)N[C@@H](CCCNC(=N)N)C(=O)N[C@@H](CO)C(=O)N[C@@H](CC(C)C)C(=O)N1CCC[C@H]1C(=O)N1CCC[C@H]1C(=O)N[C@@H]([C@@H](C)CC)C(=O)N2` [Example 15, [(6S,9S,12S,15S,18R,21S,30S,32aS,38S,41R,44S,46aS,51aS)-21,38,44-tri[(2S)-butan-2-yl]-12-(3-carbamimidamidopropyl)-9,15-bis(hydroxymethyl)-6-(2-methylpropyl)-5,8,11,14,17,20,23,26,29,32,37,40,43,46,51-pentadecaoxopentacontahydro-1H-18,41-(methanodithiomethano)tripyrrolo[1,2-a:1′,2′-d:1″,2″-p][1,4,7,10,13,16, 19,22,25,28,31,34,37,40,43]pentadecaazacyclopentatetracontin-30-yl]acetic acid] (cyclo(CIPDGGICSRSLPPI); disulfide 1-8), the half-inhibitory concentration (IC50) was found to be 120 nM at human MASP1 and 300 nM on human MASP2.

Consider `CC[C@H](C)[C@@H]1NC(=O)CNC(=O)CCCCCNC(=O)[C@@H](CC(=O)O)NC(=O)[C@@H]2CCCN2C(=O)[C@H]([C@@H](C)CC)NC(=O)[C@@H]2CSSC[C@H](NC1=O)C(=O)N[C@@H](CO)C(=O)N[C@@H](CCCNC(=N)N)C(=O)N[C@@H](CO)C(=O)N[C@@H](CC(C)C)C(=O)N1CCC[C@H]1C(=O)N1CCC[C@H]1C(=O)N[C@@H]([C@@H](C)CC)C(=O)N2` [Example 16, [(6S,9S,12S,15S,18R,21S,34R,36aS,42S,45R,48S,50aS,55aS)-21,42,48-tri[(2S)-butan-2-yl]-12-(3-carbamimidamidopropyl)-9,15-bis(hydroxymethyl)-6-(2-methylpropyl)-5,8,11,14,17,20,23,26,33,36,41,44,47,50,55-pentadecaoxotetrapentacontahydro-1H-18,45-(methanodithiomethano)tripyrrolo[2,1-f:2′,1′-r:2″,1″-u][1,4,7,10,13,16,19,22,25,28,31,34,37,40,43]pentadecaazacyclononatetracontin-34-yl]acetic acid] (cyclo([Ahx]GICSRSLPPICIP[dD]); disulfide 4-12), for which the values for the concentration for half-maximal inhibition (IC50) at human MASP1 and on human MASP2 were 150 nM and 370 nM, respectively.

On to `CC[C@H](C)[C@@H]1NC(=O)CNC(=O)CNC(=O)[C@H](C)NC(=O)[C@@H](CC(=O)O)NC(=O)[C@@H]2CCCN2C(=O)[C@H]([C@@H](C)CC)NC(=O)[C@@H]2CSSC[C@H](NC1=O)C(=O)N[C@@H](CO)C(=O)N[C@@H](CCCNC(=N)N)C(=O)N[C@@H](CO)C(=O)N[C@@H](CC(C)C)C(=O)N1CCC[C@H]1C(=O)N1CCC[C@H]1C(=O)N[C@@H]([C@@H](C)CC)C(=O)N2` [Example 17] (cyclo(AGGICSRSLPPICIP[dD]); disulfide 5-13), for which the IC50 at human MASP1 was found to be 26 nM; at human MASP2 it was 88 nM.

For the compound `CC[C@H](C)[C@@H]1NC(=O)CNC(=O)CNC(=O)[C@H](C)NC(=O)[C@H](CC(=O)O)NC(=O)[C@@H]2CCCN2C(=O)[C@H]([C@@H](C)CC)NC(=O)[C@@H]2CSSC[C@H](NC1=O)C(=O)N[C@@H](CO)C(=O)N[C@@H](CCCNC(=N)N)C(=O)N[C@@H](CO)C(=O)N[C@@H](CC(C)C)C(=O)N1CCC[C@H]1C(=O)N1CCC[C@H]1C(=O)N[C@@H]([C@@H](C)CC)C(=O)N2` [Example 18] (cyclo(AGGICSRSLPPICIPD); disulfide 5-13), the IC50 is 50 nM on human MASP1 and 15 nM on human MASP2.
